Tests used:
[1] = Acute Oral Toxicity (7 day observation in the mouse); type: in vivo
[2] = Cytotoxicity (MEM Elution) of organic antimicrobial valve material; type: cell-based

| SMILES | Acute Oral Toxicity (7 day observation in the mouse) [1] | Cytotoxicity (MEM Elution) on the device with valve material [2] | Cytotoxicity (MEM Elution) on the valve material alone ([2]; valve material alone) |
| --- | --- | --- | --- |
| Oc1cc(Cl)ccc1Oc1ccc(Cl)cc1Cl [Triclosan, 2,4,4′-trichloro-2′-hydroxydiphenyl ether] | Nontoxic | Nontoxic | Toxic |
| CCCCOC(=O)c1ccc(O)cc1 [Butyl Paraben, butyl p-hydroxy Benzoate] | Nontoxic | Nontoxic |  |

— patent US7520897B2, “Medical devices having antimicrobial properties” (Helix Medical, LLC, priority 2001, dated 2009)
